Our source for the IC50 values is US20100240686A1, “CHEMICAL COMPOUNDS” (priority 2006, published 2010).

In this assay the target is T1, CDK2/Cyclin E (Homo sapiens, UniProt P24941).
T1 construct: The open reading frames of CDK2 and Cyclin E were isolated by reverse transcriptase-PCR; made in house; host or cells: Spodoptera frugiperda SF21 insect cells (baculovirus co-infection, pVL1393)
Description: in vitro kinase assay, Scintillation Proximity Assay (incorporation of [γ-33-P]-ATP into GST-Rb). It is filed as biochemical. The settings on record: CDK2/Cyclin E partially-purified enzyme, GST-Rb substrate, 0.2 μM ATP, room temperature 60 minutes; read-out: CDK2 inhibitory activity IC50. The procedure: The compounds were tested in an in vitro kinase assay in 96 well format using Scintillation Proximity Assay (SPA—obtained from Amersham) for measuring incorporation of [γ-33-P]-Adenosine Triphosphate into a test substrate (GST-Retinoblastoma protein; GST-Rb). In each well was placed the compound to be tested (diluted in DMSO and water to correct concentrations) and in control wells either roscovitine as an inhibitor control or DMSO as a […] control.
Approximately 0.2 μl of CDK2/Cyclin E partially-purified enzyme (amount dependent on enzyme activity) diluted in 25 μl incubation buffer was added to each well then 20 μl of GST-Rb/ATP/ATP33 mixture (containing 0.5 μg GST-Rb and 0.2 μM ATP and 0.14 μCi [γ-33-P]-Adenosine Triphosphate in incubation buffer), and the resulting mixture shaken gently, then incubated at room temperature for 60 minutes. […]
The plates were sealed with Topseal-S plate sealers, left for two hours then spun at 2500 rpm, 1124×g., for 5 minutes. The plates were read on a Topcount for 30 seconds per well. […]
The open reading frames of CDK2 and Cyclin E were isolated by reverse transcriptase-PCR using HeLa cell and activated T cell mRNA as a template and cloned into the insect expression vector pVL1393 (obtained from Invitrogen 1995 catalogue number: V1392-20). […]
For orientation: SPA uses beads or plates that emit light when radiolabelled molecules are held near them.

Turning to `Cc1ncc(-c2ccnc(Nc3ccc(C(=O)NCCN(C)C)c(F)c3)n2)n1C(C)C` [Example 2, N-(2-Dimethylaminoethyl)-2-fluoro-4-[[4-(2-methyl-3-propan-2-yl-imidazol-4-yl)pyrimidin-2-yl]amino]benzamide], the IC50 (commonly the concentration at which inhibition is half-maximal) was found to be 3 nM.
